Measured values taken from US20250129101A1, “Compound, Pharmaceutical Composition Comprising the Same and Method for Treating Cancer Using the Same” (NATIONAL TSING HUA UNIVERSITY, priority 2023, published 2025).

Assays:
MDA-MB-231 cells = experiment: Cell validation: cytotoxicity in MDA-MB-231 cells (CellTiter-Glo); type: cell-based
In short: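 MDA-MB-231 cells were seeded at 2000 cells/well and exposed to compounds for the specified number of days. Medium was then replaced with a 1:1 CellTiter-Glo reagent/serum-supplemented DMEM mix for 10 min, and viability was read as luminescence, proportional to living cell number.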

4T1 S1 cells = experiment: Colony formation assay, 4T1 S1 cells; type: cell-based, mouse; settings: 1 μM 7S9 with 400 nM paclitaxel
Experimental: To assess the long-term survival of breast cancer cell lines following the treatment of KIF2C knockdown or inhibition, the cells trypsinized into single-cell suspension were homogeneously seeded in 6-well cell culture plates at a density of 5000 cells per dish, supplemented with 2× complete medium (50% 4×DMEM, 20% FBS, 2% penicillin-streptomycin, ddH2O, and 2× glutaMAX™), agarose (0.6% for bottom agar layer; 0.3% for top cell layer), ddH2O, and DMEM. After incubation for 24 hr, cells were treated with indicated drugs, such as DMSO, KIF2C inhibitors, or chemotherapy drugs, and then cultured at 37° C. incubator in an atmosphere of humidified air with 5% CO2 for a further 14-30 days. When the cell colonies grew to appropriate sizes, the culture mediums were replaced with PBS for washing. After that, the plates were stained with 10% crystal violet and analyzed using Image J.

4T1 R4 cells = experiment: Time-lapse imaging of mitotic progression, 4T1 R4 cells; type: cell-based, mouse; settings: 1 μM 7S9 and 400 nM paclitaxel
Experimental: (§1) To investigate the role of KIF2C in cell cycle progression, 4T1 cells were cultured in the 4-well chamber slide with about 50% confluence. The culture medium was replaced with a CO2-independent medium (Gibco) supplemented with 10% fetal bovine serum (Biological Industries) and 1% penicillin-streptomycin (Biowest). Then, each well of the chamber slide was treated with indicated drugs, such as DMSO, KIF2C inhibitors, or chemotherapy drugs. After that, the chamber slide was maintained in the microscope stage incubator with the supplement of humidified air with 5% CO2 at 37° C. Multiple-positional time-lapse imaging was performed using an automated Leica DM16000 inverted microscope equipped with HCX PL FL 20×/0.4 and EMCCD camera (Andor Luca R, Belfast, UK). Sequential differential interference contrast (DIC) images of cells obtained at indicated intervals were further analyzed using Metamorph software (Molecular Devices).

4T1 R8 cells = experiment: Time-lapse imaging of mitotic progression, 4T1 R8 cells; type: cell-based, mouse; settings: 1 μM 7S9 and 400 nM paclitaxel
Experimental: as §1

4T1 cells = experiment: In vivo tumor growth inhibition, 4T1 syngeneic model; design: species or system mouse; settings: 4T1 tumors, BALB/c mice
Experimental: (§2) The mice were housed at the National Health Research Institute (NHRI) Animal Center in accordance with the Institutional Animal Care and Use Committee procedures and guidelines. The 4T1-derived cells, including 4T1, 4T1 R4, and 4T1 R8, used for implantation were harvested during log phase growth and resuspended in phosphate-buffered saline. Each mouse was injected s.c. in the right flank with 5×10^5 cells. After tumor size reached 60-100 mm 3 (D1), mice were divided into groups and received treatment with vehicle or different compounds alone or in combinations. Tumor size, in mm 3, was measured twice per week and calculated from Tumor volume=(w 2×1)/2, where w=width and 1=length in mm of the tumor. The values of tumor size were expressed as mean±SEM.

4T1 R4 = experiment: In vivo tumor growth inhibition, 4T1 R4 syngeneic model; design: species or system mouse; settings: R4 tumors, BALB/c mice
Experimental: as §2

[1] = 7S9 50 mg/kg intraperitoneally, 5on/2off two cycles

In the case of CCN1CCN(C(=O)COc2ccc(/C=c3\sc4n(c3=O)C(c3ccc(Cl)cc3)C(C(=O)OC(C)C)=C(C)N=4)cc2)CC1.O=C(O)/C=C\C(=O)O (stereo not drawn) [7S9 (133), isopropyl (Z)-5-(4-chlorophenyl)-2-(4-(2-(4-ethylpiperazin-1-yl)-2-oxoethoxy)benzylidene)-7-methyl-3-oxo-2,3-dihydro-5H-thiazolo[3,2-a]pyrimidine-6-carboxylate maleate], the “cytotoxicity on MDA-MB-231 cells (in words)” value (MDA-MB-231 cells; 72 hr) is reported as “showed cytotoxicity”, the “Cell validation (IC50)” value (MDA-MB-231 cells; cytotoxicity in MDA-MB-231 cells) is reported as “+ + +” and the “colony formation, combined treatment (in words)” value (4T1 S1 cells) is reported as “did not further suppress colony formation”. The “mitotic defects, combined treatment (in words)” value (4T1 R4 cells) was “induced significant defects in mitosis”, the “mitotic defects, combined treatment (in words)” value (4T1 R8 cells) was “induced significant defects in mitosis” and the tumor growth inhibition (4T1 cells; [1]) was 20.3%. For the same compound, the “tumor growth inhibition, combination” value (4T1 cells; 7S9 50 mg/kg with paclitaxel 5 mg/kg) was 62.6%, the tumor growth inhibition (4T1 R4; [1]) was 29% and the “tumor growth inhibition, combination” value (4T1 R4; 7S9 50 mg/kg with paclitaxel 15 mg/kg) was 70.2%.
